The text below walks through data of ChEMBL document CHEMBL4725337, “Modification of imidazothiazole derivatives gives promising activity in B-Raf kinase enzyme inhibition; synthesis, in vitro studies and molecular docking” (Bioorg Med Chem Lett, 2020).

The structures appear in SMILES notation.

Sequence of Serine/threonine-protein kinase B-raf (P15056 2-766 V600E limits assumed): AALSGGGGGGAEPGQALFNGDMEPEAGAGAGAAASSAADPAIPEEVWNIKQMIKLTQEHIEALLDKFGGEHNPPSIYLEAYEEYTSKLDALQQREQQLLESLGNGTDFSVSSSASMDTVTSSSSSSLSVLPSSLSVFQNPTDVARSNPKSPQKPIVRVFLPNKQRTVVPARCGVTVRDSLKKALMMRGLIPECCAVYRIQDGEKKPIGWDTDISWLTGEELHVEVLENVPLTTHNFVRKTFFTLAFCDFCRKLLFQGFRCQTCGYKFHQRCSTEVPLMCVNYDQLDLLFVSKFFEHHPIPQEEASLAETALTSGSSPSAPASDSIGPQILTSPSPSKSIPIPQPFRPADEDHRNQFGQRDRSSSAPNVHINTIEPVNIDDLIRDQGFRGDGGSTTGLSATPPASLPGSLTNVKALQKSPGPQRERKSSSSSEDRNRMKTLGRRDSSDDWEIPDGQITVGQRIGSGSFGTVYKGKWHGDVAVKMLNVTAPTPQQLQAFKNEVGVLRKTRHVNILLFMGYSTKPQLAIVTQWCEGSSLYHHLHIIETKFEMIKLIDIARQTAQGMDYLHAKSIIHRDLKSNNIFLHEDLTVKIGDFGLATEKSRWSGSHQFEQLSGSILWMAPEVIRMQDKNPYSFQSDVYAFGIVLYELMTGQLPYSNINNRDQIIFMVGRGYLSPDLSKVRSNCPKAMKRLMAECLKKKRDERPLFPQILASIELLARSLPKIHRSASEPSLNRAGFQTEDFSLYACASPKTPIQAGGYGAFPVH

One assay addresses Serine/threonine-protein kinase B-raf (Homo sapiens, UniProt P15056, V600E). Nature of the assay: Inhibition of BRAF V600E mutant (unknown origin).
As usually defined, the IC50 is the concentration at which inhibition is half-maximal. Read a high IC50 as a need for much substance. `Cc1ccc(S(=O)(=O)NCCNc2nccc(-c3c(-c4cccc(N)c4)nc4sccn34)n2)cc1` displayed an IC50 of 0.0591 µM.

As for `Nc1cccc(-c2nc3sccn3c2-c2ccnc(NCCNS(=O)(=O)c3ccc(F)cc3)n2)c1`, the half-maximal inhibitory concentration (IC50) turned out to be 0.0127 µM.

`Nc1cccc(-c2nc3sccn3c2-c2ccnc(NCCNS(=O)(=O)c3cccc4ccccc34)n2)c1` gave a half-inhibitory concentration (IC50) of 0.152 µM.

With `COc1ccc(S(=O)(=O)NCCNc2nccc(-c3c(-c4cccc(N)c4)nc4sccn34)n2)cc1`, the IC50 was found to be 0.0234 µM.

Molecule `Nc1cccc(-c2nc3sccn3c2-c2ccnc(NCCNS(=O)(=O)c3ccc(C(F)(F)F)cc3)n2)c1` yielded an IC50 of 0.141 µM.

As to `Nc1cccc(-c2nc3sccn3c2-c2ccnc(NCCNS(=O)(=O)c3cccc(F)c3)n2)c1`, the IC50 was 0.0283 µM.

Molecule `Nc1cccc(-c2nc3sccn3c2-c2ccnc(NCCNS(=O)(=O)c3ccc(Cl)cc3)n2)c1` registered an IC50 of 0.0167 µM.

Turning to `Nc1cccc(-c2nc3sccn3c2-c2ccnc(NCCCCNS(=O)(=O)c3ccc(Br)cc3)n2)c1`, the half-maximal inhibitory concentration (IC50) amounted to 0.00431 µM.

On to `Nc1cccc(-c2nc3sccn3c2-c2ccnc(NCCNS(=O)(=O)c3ccc(Br)cc3)n2)c1`, for which half-maximal inhibition (IC50) required 0.0737 µM.

For the next assay, the system named is UACC-62. Nature of the assay: Antiproliferative activity against human UACC-62 cells at 10 uM relative to control. It counts as functional.
As to `Nc1cccc(-c2nc3sccn3c2-c2ccnc(NCCCCNS(=O)(=O)c3ccc(Br)cc3)n2)c1`, the Activity is on record as 3.91%.
